Measured values: paper PMC6899459 (Chemmedchem, 2019)
Square brackets hold non-standard residues; d marks the D form. Peptide text beside a SMILES is read from it. Trp(3S-Ph) = N[C@H](C(=O)O)[C@@H](c1ccccc1)c1c[nH]c2ccccc12; Trp(βR-Ph) = N[C@H](C(=O)O)[C@H](c1ccccc1)c1c[nH]c2ccccc12; d2Nal = N[C@H](Cc1ccc2ccccc2c1)C(=O)O; dBta = N[C@H](Cc1csc2ccccc12)C(=O)O; Inp = O=C(O)C1CCNCC1

Target: ghrelin receptor (Homo sapiens, UniProt Q92847)
Test: IP-One assay
Format: cell-based
Conditions: for potency loss relative to ghrelin: IP-One assay, COS7 cells with ghrelin receptor; for EC50 / E max [Δ%]: SEM; for E max [Δ%]: difference between constitutive activity and maximal effect, mean±SEM of >=2 independent experiments
[1] = normalized to ghrelin (5) efficacy (ghrelin analogues and multiple modified agonists)
[2] = normalized to KbFwLL-NH2 (15) (inverse agonists and 13)

Sequence of ghrelin receptor (Q92847 whole entry): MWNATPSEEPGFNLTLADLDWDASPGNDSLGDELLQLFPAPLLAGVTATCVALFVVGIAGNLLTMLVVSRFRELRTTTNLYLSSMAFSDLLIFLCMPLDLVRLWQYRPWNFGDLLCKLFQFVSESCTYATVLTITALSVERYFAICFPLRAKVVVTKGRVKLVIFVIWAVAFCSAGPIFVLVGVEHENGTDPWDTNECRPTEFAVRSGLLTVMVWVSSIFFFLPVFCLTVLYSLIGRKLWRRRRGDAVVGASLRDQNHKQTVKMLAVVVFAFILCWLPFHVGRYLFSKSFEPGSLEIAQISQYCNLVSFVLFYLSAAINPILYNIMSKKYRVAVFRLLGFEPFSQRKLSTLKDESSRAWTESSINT

| Structure (SMILES) | potency loss relative to ghrelin | EC50 | E max [Δ%] [1] | E max [Δ%] [2] |
| --- | --- | --- | --- | --- |
| CCCCCCCC(=O)OC[C@H](NC(=O)[C@H](CO)NC(=O)CN)C(=O)N[C@H](C(=O)N[C@@H](CC(C)C)C(=O)N[C@@H](CO)C(=O)N1CCC[C@H]1C(=O)N[C@@H](CCC(=O)O)C(=O)N[C@@H](Cc1c[nH]cn1)C(=O)N[C@@H](CCC(N)=O)C(=O)N[C@@H](CCCNC(=N)N)C(=O)N[C@H](C(=O)N[C@@H](CCC(N)=O)C(=O)N[C@@H](CCC(N)=O)C(=O)N[C@@H](CCCNC(=N)N)C(=O)N[C@@H](CCCCN)C(=O)N[C@@H](CCC(=O)O)C(=O)N[C@@H](CO)C(=O)N[C@@H](CCCCN)C(=O)N[C@@H](CCCCN)C(=O)N1CCC[C@H]1C(=O)N1CCC[C@H]1C(=O)N[C@@H](C)C(=O)N[C@@H](CCCCN)C(=O)N[C@@H](CC(C)C)C(=O)N[C@@H](CCC(N)=O)C(=O)N1CCC[C@H]1C(=O)N[C@@H](CCCNC(=N)N)C(=O)O)C(C)C)[C@H](c1ccccc1)c1c[nH]c2ccccc12 [Peptide 6, Wrf^4‐ghrelin] | about 12 fold | 0.0324 µM | 98±2 Δ% |  |
| CCCCCCCC(=O)OC[C@H](NC(=O)[C@H](CO)NC(=O)CN)C(=O)N[C@H](C(=O)N[C@@H](CC(C)C)C(=O)N[C@@H](CO)C(=O)N1CCC[C@H]1C(=O)N[C@@H](CCC(=O)O)C(=O)N[C@@H](Cc1c[nH]cn1)C(=O)N[C@@H](CCC(N)=O)C(=O)N[C@@H](CCCNC(=N)N)C(=O)N[C@H](C(=O)N[C@@H](CCC(N)=O)C(=O)N[C@@H](CCC(N)=O)C(=O)N[C@@H](CCCNC(=N)N)C(=O)N[C@@H](CCCCN)C(=O)N[C@@H](CCC(=O)O)C(=O)N[C@@H](CO)C(=O)N[C@@H](CCCCN)C(=O)N[C@@H](CCCCN)C(=O)N1CCC[C@H]1C(=O)N1CCC[C@H]1C(=O)N[C@@H](C)C(=O)N[C@@H](CCCCN)C(=O)N[C@@H](CC(C)C)C(=O)N[C@@H](CCC(N)=O)C(=O)N1CCC[C@H]1C(=O)N[C@@H](CCCNC(=N)N)C(=O)O)C(C)C)[C@@H](c1ccccc1)c1c[nH]c2ccccc12 [Peptide 7, Wsf^4‐ghrelin] | about 12 fold | 0.0339 µM | 96±2 Δ% |  |
| CC(C)C[C@H](NC(=O)[C@H](CC(C)C)NC(=O)[C@@H](Cc1c[nH]c2ccccc12)NC(=O)[C@H](Cc1ccccc1)NC(=O)[C@@H](Cc1c[nH]c2ccccc12)NC(=O)[C@@H](N)CCCCN)C(N)=O [Peptide 8, KwFwLL‐NH2, reference compound] |  | 0.182 µM |  | 66±3 Δ% |
| CC(C)C[C@H](NC(=O)[C@H](CC(C)C)NC(=O)[C@@H](Cc1c[nH]c2ccccc12)NC(=O)[C@H](Cc1ccccc1)NC(=O)[C@@H](NC(=O)[C@@H](N)CCCCN)[C@H](c1ccccc1)c1c[nH]c2ccccc12)C(N)=O [Peptide 9, K‐Wrf‐FwLL‐NH2] |  |  |  | 72±2 Δ% |
| CC(C)C[C@H](NC(=O)[C@H](CC(C)C)NC(=O)[C@@H](Cc1c[nH]c2ccccc12)NC(=O)[C@@H](NC(=O)[C@@H](Cc1c[nH]c2ccccc12)NC(=O)[C@@H](N)CCCCN)[C@H](c1ccccc1)c1c[nH]c2ccccc12)C(N)=O [Peptide 11, Kw‐Wrf‐wLL‐NH2] (H-K[dW][Trp(βR-Ph)][dW]LL-NH2; N-terminus assumed) |  | 0.148 µM |  | 55±4 Δ% |
| CC(C)C[C@H](NC(=O)[C@H](CC(C)C)NC(=O)[C@@H](Cc1c[nH]c2ccccc12)NC(=O)[C@@H](NC(=O)[C@@H](Cc1c[nH]c2ccccc12)NC(=O)[C@@H](N)CCCCN)[C@@H](c1ccccc1)c1c[nH]c2ccccc12)C(N)=O [Peptide 12, Kw‐Wsf‐wLL‐NH2] (H-K[dW][Trp(3S-Ph)][dW]LL-NH2; N-terminus assumed) |  | 0.282 µM |  | 77±4 Δ% |
| CC(C)C[C@H](NC(=O)[C@H](CC(C)C)NC(=O)[C@@H](NC(=O)[C@H](Cc1ccccc1)NC(=O)[C@@H](Cc1c[nH]c2ccccc12)NC(=O)[C@@H](N)CCCCN)[C@H](c1ccccc1)c1c[nH]c2ccccc12)C(N)=O [Peptide 13, KwF‐Wrf‐LL‐NH2] |  | 0.912 µM |  | 39±3 Δ% |
| CC(C)C[C@H](NC(=O)[C@H](CC(C)C)NC(=O)[C@@H](Cc1c[nH]c2ccccc12)NC(=O)[C@@H](NC(=O)[C@@H](Cc1csc2ccccc12)NC(=O)[C@@H](N)CCCCN)[C@H](c1ccccc1)c1c[nH]c2ccccc12)C(N)=O [Peptide 16, Kb‐Wrf‐wLL‐NH2] (H-K[dBta][Trp(βR-Ph)][dW]LL-NH2; N-terminus assumed) |  | 0.55 µM |  | 56±3 Δ% |
| C[C@H](N)C(=O)N[C@H](Cc1c[nH]c2ccccc12)C(=O)N[C@@H](Cc1ccccc1)C(=O)N[C@H](Cc1ccc2ccccc2c1)C(=O)N1CCC(C(N)=O)CC1 [Peptide 18, AwFn‐Isn‐NH2, reference compound] (H-A[dW]F[d2Nal][Inp]-NH2; N-terminus assumed) |  | 0.0166 µM | 110±6 Δ% |  |
| C[C@H](N)C(=O)N[C@H](Cc1c[nH]c2ccccc12)C(=O)N[C@@H](Cc1ccccc1)C(=O)N[C@H](C(=O)N1CCC(C(N)=O)CC1)[C@H](c1ccccc1)c1c[nH]c2ccccc12 [Peptide 20, AwF‐Wrf‐Isn‐NH2] (H-A[dW]F[Trp(βR-Ph)][Inp]-NH2; N-terminus assumed) |  | 0.0275 µM | 105±3 Δ% |  |
| C[C@H](N)C(=O)N[C@H](Cc1c[nH]c2ccccc12)C(=O)N[C@@H](Cc1ccccc1)C(=O)N[C@H](C(=O)N1CCC(C(N)=O)CC1)[C@@H](c1ccccc1)c1c[nH]c2ccccc12 [Peptide 21, AwF‐Wsf‐Isn‐NH2] (H-A[dW]F[Trp(3S-Ph)][Inp]-NH2; N-terminus assumed) |  | 0.0832 µM | 95±2 Δ% |  |
